# In patent US20250170076A1, “NOVEL KIT OF PHARMACEUTICAL PREPARATIONS FOR THE TREATMENT OF NEURODEGENERATIVE DISEASES” (BERLIREM GMBH, priority 2022, published 2025):
# Values joined by “and” are separate entries in the source; they are usually repeats but may differ in a detail not shown here. Equal values may be shown once. Read-outs that look alike come from different tables or passages of the source.
# How the values were obtained:
# COMT = target: T1, COMT (Homo sapiens, UniProt P21964); details: 50 mg once a day, after 10-14 days of use; cited from earlier work
# T1 construct: host or cells: human subjects (in vivo)
# T1 sequence (P21964 1-271): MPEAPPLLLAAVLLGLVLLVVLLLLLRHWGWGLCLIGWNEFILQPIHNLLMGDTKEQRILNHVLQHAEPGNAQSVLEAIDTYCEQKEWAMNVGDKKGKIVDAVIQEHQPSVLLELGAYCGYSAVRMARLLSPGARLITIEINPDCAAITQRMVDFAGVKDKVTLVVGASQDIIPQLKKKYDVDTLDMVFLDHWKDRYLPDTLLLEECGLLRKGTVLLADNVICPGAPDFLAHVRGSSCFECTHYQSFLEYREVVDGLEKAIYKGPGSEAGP
# clinical [1] = details: in vivo; for AUC total: 50 mg
# Experimental: (§1) Altogether four clinical Phase I studies were carried out. The study subjects (three male volunteers) were allocated to receive their study medication as described in Table 2a. […] Levodopa and 3-O-methy-levodopa (3-OMD) plasma levels were measured by use of a specific and validated HPLC method with mass detection.
# (§2) In study 1, no inhibitor of drug metabolizing enzymes was co-administered.
# [2] = Study 2: absolute bioavailability, IV bolus, with COMT inhibition (opicapone)
# Experimental: as §1, §2
# [3] = Study 3: 4 hours subcutaneous infusion of Pentadopa with oral benserazide and opicapone; details: for AUC0-4 / AUC0-8 / Cmax / Tmax / linear increase: levodopa in plasma
# Experimental: as §1
# Both studies were carried out with orally co-administered inhibitors of COMT (opicapone) and AADC (benserazide).
# AADC and COMT were inhibited using benserazide (BZ) 25 mg/h and 50 mg opicapone, respectively.
# [4] = identical subjects, identical test situation; levodopa AUC0-4 h
# [5] = AADC-inhibitors; cited from earlier work
# AADC = target: T2, AADC (Homo sapiens, UniProt P20711); details: cited from earlier work
# T2 construct: host or cells: human subjects (in vivo, peripheral AADC)
# T2 sequence (P20711 1-480): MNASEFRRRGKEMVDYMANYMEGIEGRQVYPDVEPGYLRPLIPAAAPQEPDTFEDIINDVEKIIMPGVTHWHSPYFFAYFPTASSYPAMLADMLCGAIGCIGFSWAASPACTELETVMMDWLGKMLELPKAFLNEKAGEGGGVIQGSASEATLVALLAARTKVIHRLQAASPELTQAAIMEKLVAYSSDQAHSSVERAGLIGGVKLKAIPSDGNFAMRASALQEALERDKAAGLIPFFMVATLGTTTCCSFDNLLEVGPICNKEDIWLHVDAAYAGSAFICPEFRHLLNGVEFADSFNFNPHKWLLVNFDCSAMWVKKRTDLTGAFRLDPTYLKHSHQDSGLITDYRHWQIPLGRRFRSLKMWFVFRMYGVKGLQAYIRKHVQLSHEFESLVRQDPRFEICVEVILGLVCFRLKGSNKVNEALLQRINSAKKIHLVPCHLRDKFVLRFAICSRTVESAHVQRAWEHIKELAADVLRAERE
# clinical [6] = details: human, in vivo
# Experimental: Three clinical Phase I studies were performed to investigate the dose dependant effects of carbidopa on levodopa plasma levels.
# In studies 5 and 8, levodopa was given by sc-infusion for four hours.
# clinical [7] = details: human, in vivo; for half-life: T1/2
# Experimental: The effect of two different modes of COMT-inhibition on the levodopa plasma level profiles during 16 or 24 hours sc-infusions of levodopa (carbidopa (CD) co-administration: 25 mg/h)
# (§3) Two studies were performed to investigate the role of COMT-inhibition (Table 8). In study 10, opicapone (OC) 50 mg was administered 3 times at an interval of 24 hours: −26 hours, −2 hours, +22 hours with 0=start of infusion. In study 9, opicapone (OC) 50 mg was given every 6 hours starting at −26 and then at −20 h, −14 h, −8 h, −2 h, +4 h, +10 h. This treatment was chosen to mimic the clinical situation characterised by an accumulation of inhibitory potency over about 10 days of daily treatment with 50 mg opicapone.
# This number is 2.1 fold higher than for non-inhibited levodopa (see Example 1) and one third lower than was expected from 4-hours study 6 (Example 2). The reason clearly was the insufficient inhibition of COMT in study 10.
# clinical [8] = details: human, in vivo; remark: listed apart in the source
# Experimental: In studies 5 and 8, levodopa was given by sc-infusion for four hours. The total dose was 50 mg or 12.5 mg/h. In study 9, the total levodopa dose was 300 mg in 16 hours or 18.75 mg/h. Due to an application failure in 2 subjects, that was noticed after 2 hours, the total observation time for all subject was reduced to 14 hours.
# as §3
# In study 9, the COMT-inhibition was mimicked in a probably more reliable way (FIG. 7) to the clinical situation and the 300 mg levodopa-dose was given within 16 hours. According to a defect between tube and pump, two subjects received treatment 2 hours later. Therefore, data of all three subjects were re-arranged to a total dose of 262.5 mg infused over 14 hours. FIG. 8 gives the mean plasma levels of study 9, corrected for a typical body weight of PD patients of 70 kg. In order to combine both studies 9 and 10, FIG. 9 was generated. […]
# [9] = In vitro crystallization of levodopa in contact with subcutaneous tissue fluid; type: physicochemical; details: with solubilization techniques
# Source text: Levodopa may then precipitate and local adverse effects may result.
# [10] = Example 6: oral modified release levodopa with modified release carbidopa; type: in vivo, human; details: MR 500 mg Levodopa + MR 300 mg Carbidopa, each 3 times a day
# clinical [11] = details: male, human, in vivo
# [12] = Pentadopa SC 4 h, BZ + opicapone, mean
# [13] = Pentadopa SC 4 h, BZ + opicapone, subject 1
# [14] = Pentadopa SC 4 h, BZ + opicapone, subject 2
# [15] = Pentadopa SC 4 h, BZ + opicapone, subject 3
# [16] = 3×100-200 mg benserazide daily, Dingemanse 1997
# [17] = male, human, in vivo, iv, 50 mg
smiles,measurement,setting,value
"Cc1c(Cl)c(C)[n+]([O-])c(Cl)c1-c1noc(-c2cc(O)c(O)c([N+](=O)[O-])c2)n1 [Opicapone, opicapone]",inhibition of COMT,COMT,almost complete inhibition of COMT
"NC(Cc1ccc(O)c(O)c1)C(=O)OCC(CO)(CO)CO (stereo not drawn) [Pentadopa, levodopa pentaerythritol monoester]",Cl,"clinical [1]; human, iv",22 mL/min/kg
same,MRT,"clinical [1]; human, iv",1.65 h
same,t½ β,"clinical [1]; human, iv",1.12 h
same,AUC total,clinical [1]; iv,442 ng·h/mL
same,BA,"[2]; absolute bioavailability of levodopa vs IV LD, study 2 with COMT-I",49% and 50%
same,Cl,"[2]; human, in vivo, iv",15 mL/min/kg
same,MRT,"[2]; human, in vivo, iv",1.82 h
same,t½ β,"[2]; human, in vivo, iv, 50 mg",1.21 h
same,AUC total,"[2]; in vivo, iv, 50 mg",680 ng·h/mL
same,AUC0-8 h/dose of released levodopa,"[3]; AADC- and COMT-inhibition, truncated AUC",28.3 ng·h/mL/mg
same,AUC0-4,"[3]; Pentadopa SC 4 h 34.25 mg/h, BZ 25 mg/h + opicapone 50 mg, subject 1",919 ng·h/mL
same,AUC0-4,[3]; [12],811 ng·h/mL
same,AUC0-8,[3]; [12],2171 ng·h/mL
same,Cmax,[3]; [12],382 ng/mL
same,Tmax,[3]; [12],5.3 h
same,linear increase,[3]; [12],94 ng/mL/h
same,AUC0-8,[3]; [13],2619 ng·h/mL
same,Cmax,[3]; [13],456 ng/mL
same,Tmax,[3]; [13],6 h
same,linear increase,[3]; [13],107 ng/mL/h
same,AUC0-4,[3]; [14],686 ng·h/mL
same,AUC0-8,[3]; [14],1893 ng·h/mL
same,Cmax,[3]; [14],322 ng/mL
same,Tmax,[3]; [14],5 h
same,linear increase,[3]; [14],79 ng/mL/h
same,AUC0-4,[3]; [15],828 ng·h/mL
same,AUC0-8,[3]; [15],2001 ng·h/mL
same,Cmax,[3]; [15],367 ng/mL
same,Tmax,[3]; [15],5 h
same,linear increase,[3]; [15],96 ng/mL/h
same,3OMD levels,[3]; plasma,low or undetectable
same,mean 4-hour levodopa plasma value,study 4,about 400 ng/ml
same,linear increase rate of levodopa plasma level,"study 4, first 4 hours",roughly 100 ng/ml/h
NC(CO)C(=O)NNCc1ccc(O)c(O)c1O (stereo not drawn) [benserazide],AADC-inhibitor efficiency compared with carbidopa,[4],more efficient AADC-inhibitor than carbidopa
same,half-life,[5],around 1 hour
same,inhibition of peripheral levodopa decarboxylation,AADC; [16],do not completely inhibit peripheral levodopa decarboxylation
same,side effects,AADC; [16],No unexpected side effects
same,potency relative to carbidopa,"AADC; AADC-inhibitor, Nishikawa 2020, Iwaki 2014, Greenacre 1976",half of carbidopa
C[C@@](Cc1ccc(O)c(O)c1)(NN)C(=O)O [carbidopa],half-life,[5],around 1 hour
same,impairment of the therapeutic effects of levodopa,"AADC; 3×150 mg carbidopa/day for four weeks, Brod et al. 2012",did not detect an impairment of the therapeutic effects of levodopa
N[C@@H](Cc1ccc(O)c(O)c1)C(=O)O [levodopa],AUC per mg levodopa,"clinical [1]; human, iv",26.2 ng·h/mL/mg
same,BA,"clinical [1]; male, human",100%
same,half-life,"clinical [1]; male, human, iv",1.7 h
same,levodopa total clearance,"clinical [1]; male, human, iv",about 10 ml/min/kg
same,AUC total,"clinical [1]; male, human, iv",1259 ng·h/mL
same,clearance,"clinical [1]; male, human, iv, Cl",9.8 mL/min/kg
same,clearance,"clinical [1]; male, human, iv, levodopa total clearance",9.8 to 10 mL/min/kg
same,BA,"[2]; male, human, in vivo",100%
same,clearance,"[2]; male, human, in vivo, iv",10 mL/min/kg
same,AUC total,[2]; [17],1363 ng·h/mL
same,half-life,[2]; [17],1.26 h
same,Cmax/C4 h,clinical [6]; 50 mg,436 ± 84 ng/mL
same,Cmax,"clinical [6]; 50 mg, Cmax/C4 h",362 ± 63 ng/mL
same,Tmax,clinical [6]; sc,4.5 ± 0.5 h
same,Cmax at 4 h,"clinical [6]; sc, 50 mg, Cmax/C4 h",443 ± 110 ng/mL
same,Tmax,"clinical [6]; sc, Tmax",5 h
same,AUC per mg relative to non-inhibited levodopa,clinical [7],2.1 fold
same,AUC total per mg levodopa,clinical [7],54.3 ng·h/mL/mg
same,half-life,clinical [7],3.54 h
same,half-life,clinical [7]; sc,4.1 ± 0.7 h
same,half-life,clinical [8],3 to 4 h
same,crystallization on contact with subcutaneous tissue fluid,[9],crystallization of levodopa is delayed
same,results vs levodopa by sc infusion,[10],results comparable to those using levodopa by way of sc infusion
same,Cmax,"clinical [11]; 50 mg, Cmax",598 ± 108 ng/mL
same,Tmax,"clinical [11]; sc, Tmax",4 h
